Results: publication PMC5320518, “Novel Liver-targeted conjugates of Glycogen Phosphorylase Inhibitor PSN-357 for the Treatment of Diabetes: Design, Synthesis, Pharmacokinetic and Pharmacological Evaluations” (Scientific Reports, 2017)

Key:
skeletal muscle function = test system: skeletal muscle function; design: method as in PMID 16046314, PMID 16731853; conditions: prolonged (60 min) muscle contraction, perfused rat hindlimb model; cited from earlier work
[1] = Stability in mouse liver microsomes (MLM); assay type: in vitro ADME; conditions: C57BL/6, pH 7.4, n = 3
Description: Additionally, the compounds’ stability in microsome were evaluated by measuring the rate of compounds consumpation in MLM and the results are shown in Table 3.
The microsomal pellet was suspended in potassium phosphate buffer (100 mM, pH 7.4), 10 μM test compound or positive control (diclofenac) was added. Liver microsomes from C57BL/6 mice (BD Gentest) were pooled. The mixture of microsome solution and compound was incubated at 37 °C for about 10 min in the presence of a NADPH-regenerating system, consisting of 0.02 M DL-isocitric acid (trisodium salt), 0.1 mg/mL isocitrate dehydrogenase and 1 mM NADPH. The addition of ice-cold CH3CN (including 100 ng/mL tolbutamide as internal standard) terminated the reaction. The mixture was vortexed for approx (30 s), centrifuged (20 min, 4000 rpm) and the supernatant was collected and analysed by LC-MS/MS method.

[2] = Stability in mouse plasma; assay type: in vitro ADME; conditions: 2 μM, 37 °C, 120-min test
Description: Frozen plasma from male C57 BL/6 mice was incubated for 5 min at 37 °C before the addition of the test compound. Then prepared 2 μM incubation sample, and aliquots of the incubation mixtures (100 μL) were taken at predetermined time points (10, 30, 60, 120 min) at 37 °C. After incubation, the mixtures was added 400 μL of 50% ACN/50% MeOH containing internal standard (IS, 200 ng/mL Tolbutamide and 20 ng/mL Buspirone) to each sample tube and then centrifuged at 13000 rpm for 8 min. Blank incubations in the absence of the test compound were also performed. The analyses of test compounds were performed by LC-MS/MS analysis.

[3] = Stability in simulated intestinal fluid (SIF); assay type: in vitro ADME; conditions: SIF pH 6.79 with pancreatin, 2 μM, 37 °C
Description: (§1) All the conjugates were tested for their chemical and metabolic stability in multiple assays, including simulated gastric fluid (SGF), simulated interstinal fluid (SIF), mouse plasma, and mouse liver microsome (MLM).
(§2) For the stability in SGF (Fig. 8) and SIF (Fig. 9), the conjugates could be divided into three groups: (1) stable conjugates 2, 6 and 9. […] The two conjugates were degraded within 6 h and 1 h in SGF and SIF, respectively, with alomost no conjugates at the end of the 24 h incubation in both SGF and SIF; (3) complicated conjugates 3, 4, 5 and 8.
(§3) The simulated gastrointestinal fluids were prepared according to USP specifications. For SGF, NaCl (0.12 g) and pepsin (0.18 g, from porcine stomach mucosa) was dissolved in HCl (0.42 mL) and sufficient H2O was added to make 60 mL. The pH of the test solution was determined as 1.21 by pH meter. For the SIF, KH2PO4 (0.408 g) and pancreatin (0.6 g, from porcine pancreas) was dissolved in H2O (60 mL). The pH of the test solution was determined as 6.79 by pH meter. Each test compound was dissolved in DMSO and diluted to a final concentration of 2 μM in SIF and SGF. The final concentrations of DMSO and CH3CN in the incubation mixture were 0.2% and 0.45%. Aliquots of these solutions were pipetted into glass tubes, and placed in a 37 °C shaking water bath. Test samples at corresponding time point (1, 2, 6, 24 h) were removed at the end of incubation time and immediately mixed with 800 μL of cold acetonitrile containing 500 ng/mL tolbutamide (internal standard). Samples were subjected to centrifuge at 4000 rpm, 4 °C for 20 min. Aliquots 60 μL of supernatant was combined with 120 μL water for LC-MS/MS analysis.

[4] = Stability in simulated gastric fluid (SGF); assay type: in vitro ADME; conditions: SGF pH 1.21 with pepsin, 2 μM, 37 °C, 24 h incubation
Description: as §1, §2, §3

[5] = target: T1, rabbit muscle GPa (RMGPa) (Oryctolagus cuniculus, UniProt P00489); assay: RMGPa inhibition assay (phosphate release from glucose-1-phosphate); assay type: biochemical; conditions: mean ± S.D. of three determinations; NI means no inhibition
T1 sequence (P00489 2-843 limits assumed): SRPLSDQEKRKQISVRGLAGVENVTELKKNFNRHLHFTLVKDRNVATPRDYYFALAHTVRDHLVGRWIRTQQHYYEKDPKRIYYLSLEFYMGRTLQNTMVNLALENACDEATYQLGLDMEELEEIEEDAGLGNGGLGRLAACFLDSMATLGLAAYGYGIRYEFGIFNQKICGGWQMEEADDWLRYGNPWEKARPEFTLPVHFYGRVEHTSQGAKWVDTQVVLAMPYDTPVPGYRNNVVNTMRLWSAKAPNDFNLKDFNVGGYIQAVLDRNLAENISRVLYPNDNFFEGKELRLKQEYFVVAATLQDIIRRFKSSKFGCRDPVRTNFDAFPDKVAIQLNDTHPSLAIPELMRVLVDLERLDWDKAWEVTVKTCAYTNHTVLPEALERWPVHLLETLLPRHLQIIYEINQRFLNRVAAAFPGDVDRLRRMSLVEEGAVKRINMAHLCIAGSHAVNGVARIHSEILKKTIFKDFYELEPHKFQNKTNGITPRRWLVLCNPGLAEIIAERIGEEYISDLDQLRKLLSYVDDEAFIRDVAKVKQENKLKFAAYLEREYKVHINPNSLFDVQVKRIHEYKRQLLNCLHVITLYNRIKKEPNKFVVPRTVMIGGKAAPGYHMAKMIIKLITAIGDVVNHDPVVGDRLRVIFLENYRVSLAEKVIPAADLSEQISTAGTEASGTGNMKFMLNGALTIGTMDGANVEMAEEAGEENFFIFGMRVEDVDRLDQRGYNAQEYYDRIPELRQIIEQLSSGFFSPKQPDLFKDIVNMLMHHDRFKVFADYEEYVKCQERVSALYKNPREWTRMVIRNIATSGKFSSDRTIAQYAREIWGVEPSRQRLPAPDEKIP
Description: All the compounds were evaluated for their inhibitory activity against rabbit muscle GPa (RMGPa). The activity of RMGPa was measured through detecting the release of phosphate from glucose-1-phosphate in the direction of glycogen synthesis. CP-91149, a well-known allosteric GP inhibitor, which shares the same binding site with PSN-357, was used as the positive control and the results are summarized in Table 1[21]. […] This remarkable loss of activity was probably due to the direct steric interference by such bulky substituent of cholic acid group. […] The results is consistent with the SARs of PSN-357 that the hydroxyl of piperidine is not an essential group for the GP inhibitory activity that could be modified slightly.
The inhibitory activity of the test compounds against rabbit muscle glycogen phosphorylase a (GPa) was monitored using microplate reader (BIO-RAD) based on the published method. In brief, GPa activity was measured in the direction of glycogen synthesis by the release of phosphate from glucose-1-phosphate. Each test compound was dissolved in DMSO and diluted at different concentrations for IC50 determination. The enzyme was added into 100 μL of buffer containing 50 mM Hepes (pH = 7.2), 100 mM KCl, 2.5 mM MgCl2, 0.5 mM glucose-1-phosphate, 1 mg/mL glycogen and the test compound in 96-well microplates (Costar). After the addition of 150 μL of 1 M HCl containing 10 mg/mL ammonium molybdate and 0.38 mg/mL malachite green, reactions were run at 22 °C for 25 min, and then the phosphate absorbance was measured at 655 nm. The IC50 values were estimated by fitting the inhibition data to a dose-dependent curve using a logistic derivative equation.

Row | Compound | greater muscle fatigue than the control group (skeletal muscle function) [%] | CLint scaled at 10 μM [1] [L/h/kg] | half-life at 10 μM [1] [min] | microsomal CLint at 10 μM [1] [µL/min/mg] | degradation in mouse plasma [2] | time within which degraded in SIF [3] [h] | stability in SGF (in words) [4] | melting point [°C] | IC50 (RMGPa inhibition) [5]
1 | CP316819 | 35 |  |  |  |  |  |  |  | 
2 | CC(C)[C@H](NC(=O)CC[C@@H](C)[C@H]1CC[C@H]2[C@@H]3[C@H](O)C[C@@H]4C[C@H](O)CC[C@]4(C)[C@H]3C[C@H](O)[C@]12C)C(=O)OC1CCN(C(=O)[C@H](Cc2ccc(F)cc2)NC(=O)c2cc3cc(Cl)ncc3[nH]2)CC1 [Conjugate 4] |  | 9.03 | 36.5 | 38 | approximately 4% | ≤ 1 | relatively stable | 185 to 187 | no activity
